The results in this text go back to the NIST ThermoML archive (doi:10.1016/j.fluid.2010.09.006).

Each structure is given as a SMILES string.

For this data set the following is noted: 345.7 K; Crystal; visual observation.

As a reminder, the vapor or sublimation pressure is the pressure of vapour in equilibrium with the condensed phase.

For the compound `c1ccc2ccccc2c1` [naphthalene], the “vapor or sublimation pressure” value came to 3000 kPa.
